Literature values as cited in patent US6872408B2, “Method of treating bipolar disorders using deuterium-substituted carbonate” (priority 2001, dated 2005).

What was measured:
biological clock = details: in vivo
patients = patients treated for mania
deer mice = details: increasing ratio of D2O to H2O in drinking water
[1] = system: patients with bipolar disorder

In the case of CC(C)[C@@H]1NC(=O)[C@H](C)OC(=O)[C@@H](C(C)C)NC(=O)[C@@H](C(C)C)OC(=O)[C@H](C(C)C)NC(=O)[C@H](C)OC(=O)[C@@H](C(C)C)NC(=O)[C@@H](C(C)C)OC(=O)[C@H](C(C)C)NC(=O)[C@H](C)OC(=O)[C@@H](C(C)C)NC(=O)[C@@H](C(C)C)OC1=O [valinomycin], the “effect on length of the biological clock” value (biological clock) is listed as “lengthen the biological clock”.
In the case of CCCC(CCC)C(=O)O [DEPAKOTE, valproic acid], the side effect (patients) is given as “frequently causes blood dyscrasias”.
For lithium salts, the “effect on length of the biological clock” value (biological clock) is listed as “lengthen the biological clock”.
For CCO [ethanol], the “effect on length of the biological clock” value (biological clock) is given as “lengthen the biological clock”.
For [2H]O[2H] [Deuterium oxide], the “effect on the period and entrainment of the light-dark (LD) cycle” value (mice) is listed as “chronomutagenic effect”, the “effect on length of the biological clock” value (biological clock) is listed as “lengthen the biological clock” and the spontaneous locomotor activity (mouse) is listed as “suppressed”. For the same compound, the “effect of D2O on the biological clock” value (deer mice) was “dose dependent and reversible”.
For [Li] [lithium], the “time for effects to take affect” value ([1]; patients with bipolar disorder) is given as “up to 2 weeks” and the “patients receiving beneficial effects” value ([1]; patients with bipolar disorder prescribed lithium) is given as “up to 80%”.
